The results in this text go back to US8809341B2, “2,4-pyrimidinediamine compounds and uses as anti-proliferative agents” (Rigel Pharmaceuticals, Inc., priority 2003, dated 2014).

Where two headings read alike, the source gives them in different places.

In one assay the test system is A549 cells. Nature of the assay: in vitro antiproliferation assay, A549 (lung). It is filed as cell-based. The procedure, abridged: (§1)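 IC50 values came from standard antiproliferation testing in cultured tumour cells; the A549 and H1299 lines are of lung origin.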
The next assay concerns H1299 cells. The experiment in a line: in vitro antiproliferation assay, H1299 (lung). It is filed as cell-based. The procedure, abridged:
as §1

A further assay deals with ACHN. The experiment in a line: in vitro antiproliferation assay, ACHN (kidney/p53 wt). The format is cell-based. The method, then: (§2) The IC50 values of various compounds against a various different tumor cell lines were determined using standard in vitro antiproliferation assays. The tumor cell lines tested were as follows: A549 (lung); H1299 (lung), ACHN (kidney/p53 wt), CAKI (renal cell carcinoma), NCI-H460 (lung); HCT116 (colon/p53w0; HELA (cervix/p53 wt), HUH7 (liver/p53 wt), HUVEC (primary endothelial), LNCAP (prostate), HT-29 (colon); MCF-7 (breast); MCF-7 (breast/ER positive), MDA MB435S (breast); MDA MB231 (breast/ER negative), DU145 (prostate); BxPC-3 (pancreatic); SKOV-3 (ovarian); HepG2 (hepatic), NDHF primary normal human dermal fibroblast), SKMEL28 (breast/p53mut), SKMEL5 (breast/p53 wt), U20S (bone) and PC3 (prostate). […] A blank indicates the specified compound was not tested against the specified cell line.
(§3) Many of the compounds were tested against other cell lines. Their activity is reported in TABLE 15, below, where +”, “−”, “−/+” or “+/−” values are as described for TABLES 1-14. Where the cell line includes a value in a parenthetical, the value indicates the seeding density at which the assay was performed

A further assay concerns CAKI. The experiment in a line: in vitro antiproliferation assay, CAKI (renal cell carcinoma). The format is cell-based. Here is the method:
as §2, §3

The next assay relates to HCT116. Nature of the assay: in vitro antiproliferation assay, HCT116 (colon). It is filed as cell-based. Summed up: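 Cells were seeded, at the density shown in parentheses where one is given, and exposed to compound in a standard in vitro antiproliferation assay, from which IC50 was determined.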
The test system of another assay is HELA. The experiment in a line: in vitro antiproliferation assay, HELA (cervix/p53 wt). The format is cell-based. The method, then:
as §2, §3

A further assay has as its system HUH7. The experiment in a line: in vitro antiproliferation assay, HUH7 (liver/p53 wt). The format is cell-based. The method, then:
as §2, §3

The next assay deals with HUVEC. Nature of the assay: in vitro antiproliferation assay, HUVEC (primary endothelial). The format is cell-based. The method, then:
as §2, §3

A further assay deals with LNCAP. Nature of the assay: in vitro antiproliferation assay, LNCAP (prostate). It is filed as cell-based. Here is the method: as §2, §3
Another assay deals with MCF-7. Nature of the assay: in vitro antiproliferation assay, MCF-7 (breast/ER positive). The format is cell-based. The method, then:
as §2, §3

The next assay has as its system MDA MB231. The experiment in a line: in vitro antiproliferation assay, MDA MB231 (breast/ER negative). It is filed as cell-based. Here is the method:
as §2, §3

In the next assay the test system is NDHF. Nature of the assay: in vitro antiproliferation assay, NDHF (primary normal human dermal fibroblast). It is filed as cell-based. Here is the method: as §2, §3
The subject of a further assay is SKMEL28. Nature of the assay: in vitro antiproliferation assay, SKMEL28 (breast/p53mut). The format is cell-based. The method, then:
as §2, §3

Another assay deals with SKMEL5. Nature of the assay: in vitro antiproliferation assay, SKMEL5. It is filed as cell-based. The method, then: as §2, §3
The next assay has as its system U20S. The experiment in a line: in vitro antiproliferation assay, U20S (bone). The format is cell-based. The method, then:
as §2, §3

For assay [1], the system named is tumors generated from A549 cells. Nature of the assay: in vivo xenograft experiment, tumors generated from A549 cells. As to conditions: mice. Here is the method: Compounds 107, 858, 164, 211 and 156 were tested for their ability to shrink tumors generated from A549 cells in standard xenograft experiments. Compounds 141 and 211 were tested against H1299 tumors.

For the next assay, the system named is PC3. Nature of the assay: in vitro antiproliferation assay, PC3 (prostate). The format is cell-based. Here is the method:
as §2, §3

The mark [2] stands for this setting: IC50 class against A549 (lung) tumor cells.
Where [3] appears, read: IC50 class against H1299 (lung) tumor cells.
The mark [4] stands for this setting: HCT116 (colon), read-out: HCT116.
Where [5] appears, read: MCF7, seeding density 2K, read-out: MCF7(2K).
Where [6] appears, read: MCF7, seeding density 4K, read-out: MCF7(4K).
Where [7] appears, read: MDA-MB-231, seeding density 2K, read-out: MDA-MB-231(2K).
Where [8] appears, read: MDA-MB-231, seeding density 4K, read-out: MDA-MB-231(4K).
[9] abbreviates: Table 5, in vitro antiproliferation, A549 (lung) cells.
The mark [10] stands for this setting: Table 5, in vitro antiproliferation, H1299 (lung) cells.
Where [11] appears, read: Table 7, in vitro antiproliferation, A549 (lung) cells.
[12] abbreviates: Table 7, in vitro antiproliferation, colon cells, read-out: HTC116.

`COC(=O)N1CCN(c2ccc(Nc3ncc(F)c(NC4CCC4)n3)cc2)CC1` [compound 107]: the IC50 in the assay on A549 cells (setting [2]) is at most 20 µM; with H1299 cells (setting [3]), at most 20 µM; with ACHN, at most 20 µM; in the assay with CAKI it was at most 20 µM; in the assay on HCT116 (setting [4]) it was above 20 µM; in the assay with HELA, at most 20 µM. Moreover, the IC50 with HUH7, with HUVEC, with LNCAP, with MCF-7 (setting [5]), with MCF-7 (setting [6]) and in the assay on MDA MB231 (setting [7]) was at most 20 µM in each case. In addition, the IC50 in the assay on MDA MB231 (setting [8]), with NDHF, in the assay with SKMEL28, in the assay on SKMEL5 and in the assay with U20S was at most 20 µM throughout.

Consider `CN1CCN(c2ccc(Nc3ncc(F)c(N(C)C4CCC4)n3)cc2)CC1` [compound 125], for which the IC50 in the assay on A549 cells (setting [2]), with H1299 cells (setting [3]), in the assay with HCT116 (setting [4]), in the assay on HELA, in the assay with MCF-7 (setting [5]) and in the assay on MCF-7 (setting [6]) was at most 20 µM in each case. For the same compound, the IC50 with MDA MB231 (setting [7]) and in the assay with MDA MB231 (setting [8]) was at most 20 µM in each case.

Regarding `CN1CCN(c2ccc(Nc3ncc(F)c(NC4CCCCC4)n3)cc2)CC1.Cl` [compound 156], the “Preliminary Results: reduction in tumor size” value in assay [1] (50 mg/kg Bid, daily, 0.9% Saline) amounted to 60.4%.

Consider `Fc1cnc(Nc2cccc(-c3ncco3)c2)nc1Nc1cc(C2CC2)[nH]n1` [compound 211], for which the IC50 with A549 cells (Homo sapiens, IC50 class against A549 (lung) tumor cells) is at most 20 µM; with H1299 cells (Homo sapiens, NCI-H1299, IC50 class against H1299 (lung) tumor cells), at most 20 µM; with HCT116 (Homo sapiens, HCT-116, HCT116 (colon), read-out: HCT116), at most 20 µM; with HELA (Homo sapiens), at most 20 µM; with MCF-7 (Homo sapiens, MCF7, seeding density 2K, read-out: MCF7(2K)), at most 20 µM; in the assay with MCF-7 (Homo sapiens, MCF7, seeding density 4K, read-out: MCF7(4K)), at most 20 µM. The IC50 in the assay on MDA MB231 (Homo sapiens, MDA-MB-231, seeding density 2K, read-out: MDA-MB-231(2K)) was at most 20 µM; with MDA MB231 (Homo sapiens, MDA-MB-231, seeding density 4K, read-out: MDA-MB-231(4K)), at most 20 µM. In addition, in assay [1] (25 mg/kg bid, 100% DMSO), the “Preliminary Results: reduction in tumor size” value amounted to 23.2%.

Consider `CNC(=O)COc1cccc(Nc2ncc(F)c(Nc3ccc4c(c3)NC(=O)C(C)(C)O4)n2)c1` [compound 355], for which the IC50 was above 20 µM in the assay with HCT116 (setting [4]), at most 20 µM with HUH7 and at most 20 µM in the assay with PC3.

As to `COc1c(C)cc(Nc2ncc(F)c(Nc3ccc4c(c3)NC(=O)C(C)(C)O4)n2)cc1Cl` [compound 359], the values for the IC50 with HCT116 (setting [4]) and in the assay on HUH7 were above 20 µM and at most 20 µM, respectively.

As for `COc1cc(Nc2ncc(F)c(Nc3ccc4c(c3)OCCO4)n2)cc(OC)c1` [compound 512], the IC50 in the assay with A549 cells (setting [9]) is at most 20 µM; in the assay on H1299 cells (setting [10]) it was at most 20 µM; in the assay with ACHN it was at most 20 µM; with HCT116 (setting [4]) it was above 20 µM; in the assay with HELA, at most 20 µM; with HUH7, at most 20 µM. The IC50 in the assay with HUVEC, in the assay on LNCAP, in the assay with NDHF, in the assay with SKMEL28, with SKMEL5 and in the assay with U20S was at most 20 µM in each case. Also, the IC50 with PC3 is above 20 µM.

As for `Cc1cc(Nc2ncc(F)c(Nc3ccc4c(c3)OCCO4)n2)cc(C(F)(F)F)c1` [compound 523], the IC50 in the assay on A549 cells (setting [9]) is above 20 µM; in the assay on H1299 cells (setting [10]), at most 20 µM; in the assay with ACHN it was at most 20 µM; in the assay on HCT116 (setting [4]), above 20 µM; in the assay with HELA it was at most 20 µM; in the assay on HUH7 it was at most 20 µM. The IC50 with HUVEC, in the assay with LNCAP, with NDHF, with SKMEL28, with SKMEL5 and with U20S was at most 20 µM throughout.

Take `CCOC(=O)c1cc2cccc(Nc3ncc(F)c(Nc4cc(C)cc(C)c4)n3)c2[nH]1` [compound 646]: the IC50 with A549 cells (setting [11]) is at most 20 µM; in the assay on H1299 cells (Table 7, in vitro antiproliferation, H1299 (lung) cells), at most 20 µM; in the assay with ACHN, at most 20 µM; in the assay on CAKI it was at most 20 µM; with HCT116 (setting [4]), above 20 µM; with HCT116 (setting [12]) it was at most 20 µM. In addition, the IC50 in the assay on HELA, in the assay on HUH7, with HUVEC, in the assay on LNCAP, in the assay with NDHF and in the assay on SKMEL28 was at most 20 µM throughout. Further, the IC50 with SKMEL5 and in the assay with U20S was at most 20 µM throughout.

For `CNC(=O)c1cc2cccc(Nc3ncc(F)c(Nc4ccc5c(c4)OCCO5)n3)c2[nH]1` [compound 649], the IC50 in the assay on A549 cells (setting [11]) is at most 20 µM; with HCT116 (setting [4]), above 20 µM; with HCT116 (setting [12]), at most 20 µM; in the assay on HELA, at most 20 µM; in the assay with HUH7, at most 20 µM; in the assay with HUVEC, at most 20 µM. Further, the IC50 with LNCAP, in the assay with NDHF and in the assay with U20S was at most 20 µM throughout.

Take `COc1ccc(Nc2nc(Nc3cccc(-c4ncco4)c3)ncc2F)cc1OC` [compound 858]: the IC50 in the assay with A549 cells (A549 (lung) cells, in vitro antiproliferation) was at most 20 µM; with H1299 cells (H1299 (lung) cells, in vitro antiproliferation), at most 20 µM; in the assay with ACHN, at most 20 µM; in the assay on HCT116 (setting [4]), at most 20 µM; in the assay with HELA, at most 20 µM; in the assay on MCF-7 (setting [5]) it was at most 20 µM. The IC50 in the assay on MCF-7 (setting [6]), in the assay on MDA MB231 (setting [7]), in the assay with MDA MB231 (setting [8]), in the assay on SKMEL28, in the assay with SKMEL5 and in the assay on U20S was at most 20 µM throughout.

Consider `Cc1cc(Nc2ncc(F)c(Nc3cc(C)c(O)c(Cl)c3)n2)cc(Cl)c1O` [compound 942], for which the IC50 in the assay on A549 cells (A549 (lung) cells, antiproliferation) is at most 20 µM; in the assay on H1299 cells (H1299 (lung) cells, antiproliferation) it was at most 20 µM; in the assay on ACHN, at most 20 µM; in the assay with CAKI, at most 20 µM; with HCT116 (setting [4]), at most 20 µM; with HELA it was at most 20 µM. Further, the IC50 in the assay on HUH7, in the assay with HUVEC, in the assay with LNCAP, in the assay with NDHF, in the assay on SKMEL28 and in the assay with SKMEL5 was at most 20 µM in each case. The compound also registered an IC50 in the assay on U20S of at most 20 µM.
